In series [1] the test system is A/Hong Kong/4801/2014 (H3N2). Put plainly: microbe, parasite or virus in culture. Type of series: cell-based, Influenza A.
Series [2] has as its system A/Michigan/45/2015 (H1N1). As to the kind of experiment: microbe, parasite or virus in culture. The series is classed as cell-based, Influenza A.
The subject of series [3] is A/PR/8/1934 (H1N1) (wild-type). As to the kind of experiment: microbe, parasite or virus in culture. The conditions noted are these: Influenza A virus. The series is classed as cell-based.
For series [4] the following is noted: in vivo, cited from earlier work.
Series [5] concerns A/California/04/2009 (H1N1). Put plainly: microbe, parasite or virus in culture. Type of series: cell-based. The conditions noted are these: Influenza A virus.
In series [6] the test system is MDCK cells.
Setting [7] is: read-out: EC50 (μM) - Replicate 1.
The mark [8] stands for this setting: read-out: EC50 (μM) - Replicate 2.

Read-outs that look alike come from different tables or passages of the source.

As to `CCC(CC)[C@H](NC(C)=O)[C@@H]1[C@H](O)[C@@H](C(=O)O)C[C@H]1N=C(N)N.O.O.O` [Peramivir (PER), Peramivir trihydrate], the EC50 (usually the concentration that produces a half-maximal response) in series [1] was “the most potent NAI”; in series [1] (read-out: EC50), 57 nM; in series [2] (setting [7]), 0.01 µM; in series [2] (setting [8]), less than 0.006 µM.

Consider `CC(=O)N[C@H]1[C@H]([C@H](O)[C@H](O)CO)OC(C(=O)O)=C[C@@H]1N=C(N)N` [Zanamivir (ZAN), Zanamivir], for which the EC50 stood at 2600 nM in series [1] (Influenza A virus, H3N2, 40 h); 0.06 µM in series [2] (Influenza A virus, H1N1, MDCK, read-out: EC50 (μM) - Replicate 1); 0.034 µM in series [2] (Influenza A virus, H1N1, MDCK, read-out: EC50 (μM) - Replicate 2).

For the molecule `O=C1c2c(O)c(=O)ccn2N([C@@H]2c3ccccc3SCc3c2ccc(F)c3F)[C@@H]2COCCN12` [baloxavir, Baloxavir], the EC50 in series [3] was roughly 1 nM; in series [1] (Influenza A virus, H3N2), 0.8 nM; in series [5] it was 1 nM. The highest concentration (Cmax) (usually the maximum level reached in the sampled fluid or tissue) in series [4] (40 mg) was 96.4 ng/mL; in series [4] (80 mg), 107 ng/mL.

For Oseltamivir acid [Oseltamivir (OSE)], the CC50 – broadly, the concentration giving 50% cytotoxicity – in series [6] was greater than 50 µg/mL. Further, the EC50 was determined as 760 nM in series [1] (read-out: EC50), 0.18 µM in series [2] (setting [7]) and 0.024 µM in series [2] (setting [8]).

Values taken from patent US11230593B2, “Compositions and methods for treating and preventing influenza” (VISTERRA, INC., priority 2019, dated 2022).
